Measured values published in patent US4874795A, “Composition for delivery of orally administered drugs and other substances” (priority 1986, dated 1989).
Like-named read-outs stand apart in the source and are kept apart here.

What was measured:
[1] = in vivo; cited from earlier work
[2] = cited from earlier work; for biological activity: oral
[3] = cited from earlier work
[4] = Capacity and stability of the composition as a vitamin A delivery means; assay type: physicochemical; details: for Viscosity: cold solution
Description: A composition that included oleic acid, monoglyceride and lysophosphatidyl choline as described in Example I was used for characterizing the capacity of the composition for vitamin A (also as described above). Vitamin A was added in batches to the composition as follows: 1st addition, 0.277 mmoles; 2nd, 0.241; 3rd, 0.276; 4th, 0.262 and 5th, 0.285. […] The millimole ratio of the composition was approximately 2:1:0.1 (oleic acid: mono-olein:lysophosphatidyl choline).
After each addition the approximate amount of time necessary for the complete dissolution of the added vitamin A was recorded, as was the extent of schlierin evident. The time needed to obtain a minimal schlieric effect was generally between 5 minutes and 60 minutes and inversely related to the amount of vitamin A added. After each addition and the achievement of a minimal schlieric effect, the solution was placed in an ice-bath in order to evaluate its stability. The relative viscosity of the cold solution was also recorded. […]

[5] = rat, in vivo
Description: Tritium labeled (^3 H) vitamin A ([…]; Hoffman LaRoche) was incorporated into a lipid formulation of the following composition: 56 mg. of oleic acid (NuCheck Prep, Inc.); 36 mg. of mono-olein (NuCheck Prep, Inc.) and 6 mg. of lysophosphatidyl choline derived from soy lecithin (A. E. Staley Mfg. Co.). This corresponds to an approximate molar ratio of oleic acid: mono-olein: lysophosphatidyl choline of 2:1:0.1. (The approximate molar percentages of the components were 64.5:32.3:3.2, respectively). The composition was administered to Sprague-Dawley rats (weighing 210-230 gm) by gavage.
Tritium-labeled vitamin A (7mg. or 0.25 millimoles) was administered to Sprague-Dawley rats (as above) in 99 mg. food grade, refined corn oil (A. E. Staley Mfg. Co.).
The concentration of vitamin A equivalents in the plasma was measured by obtaining duplicate 0.05 ml. blood samples from the orbital sinus at 0.5, 1, 2, 3, 4, 6, 8 and 24 hours after administration. The blood was collected in hematocrit tubes and centrifuged; the plasma was transferred into tared scintillation vials and weighed. The radioactivity was determined by liquid scintillation counting.

[6] = cited from earlier work; for absorption in mixed micelle versus alone: mono-olein/sodium taurocholate
[7] = oral, cited from earlier work
[8] = cited from earlier work; remark: listed apart in the source
[9] = excess bile salts, cited from earlier work
[10] = 1st addition, total 0.277 mmoles
[11] = 2nd addition, total 0.518 mmoles
[12] = 3rd addition, total 0.794 mmoles
[13] = 4th addition, total 1.056 mmoles
[14] = 5th addition, total 1.341 mmoles

## CCCCC/C=C\C/C=C\CCCCCCCC(=O)O [linoleic]
[1]
  absorption into lymph compared with saturated fatty acids: more rapidly and to a greater extent

## COC1=CC(=O)C[C@@H](C)[C@]12Oc1c(Cl)c(OC)cc(OC)c1C2=O [griseofulvin]
[2]; co-administered with high fat content meal or in oil and water emulsion
  absorption: enhanced

## CCCCCCCCCCCC(=O)O [lauric]
[1]
  absorbed fatty acid transported in the lymph: 15-55%

## CCCCCCCC/C=C\CCCCCCCC(=O)OC[C@@H](O)COP(=O)([O-])OCC[N+](C)(C)C [oleoyl lysophosphatidyl choline]
[3]; versus lysophosphatidyl choline from mainly saturated phosphatidyl choline
  increase in triglyceride and phospholipid in lymphatic transported fat: 100%

## CCCCCCCCCC(=O)O [decanoic]
[1]
  absorbed fatty acid transported in the lymph: 5-20%

## CCCCCCCCCCCCCCCCCC(=O)O [stearic]
[1]
  absorbed fatty acid transported in the lymph: 85%
  absorption of fatty acid: 30-45%

## CCCCCCCCCCCCCCCC(=O)O [palmitic]
[1]
  absorbed fatty acid transported in the lymph: 85%
  absorption of fatty acid: 65-70%

## CC1=C(/C=C/C(C)=C/C=C/C(C)=C/CO)C(C)(C)CCC1 [Vitamin A]
[4]; [10]
  Schleirin: none
  Temp. to attain a clear solution: 20 °C
  Viscosity: normal
[4]; 1st addition, total 0.277 mmoles, 20° C.
  Time to attain a clear solution: 1 min
[4]; [11]
  Schleirin: minimal
  Temp. to attain a clear solution: 20 °C
  Viscosity: normal
[4]; 2nd addition, total 0.518 mmoles, 20° C.
  Time to attain a clear solution: 1 min
[4]; [12]
  Schleirin: medium
  Temp. to attain a clear solution: 37 °C
  Viscosity: thicker
[4]; 3rd addition, total 0.794 mmoles, 37° C.
  Time to attain a clear solution: 5 min
[4]; [13]
  Schleirin: medium
  Temp. to attain a clear solution: 37 °C
  Viscosity: viscous
[4]; 4th addition, total 1.056 mmoles, 37° C.
  Time to attain a clear solution: 10 min
[4]; [14]
  Schleirin: extensive
  Temp. to attain a clear solution: 46 °C
  Viscosity: very viscous
[4]; 5th addition, total 1.341 mmoles, 46° C.
  Time to attain a clear solution: 10 min
[4]; approximately 1 gm of the composition, after 5th addition
  total vitamin A added (capacity of the composition): 1.341 mmol

## CCCCCCCCCCCCCC(=O)O [myristic]
[1]
  absorbed fatty acid transported in the lymph: 68-80%
  absorption of fatty acid: 80-90%

## Corn Oil
[5]
  absorption of vitamin A: complete
[5]; po, 180 min
  vitamin A absorbed: 77%

## heparin
[6]; in vivo
  absorption from large intestine relative to small intestine: twice
  absorption without micelle formulation: poorly absorbed
  concentration in mixed micelle for potentiation, large intestine relative to small intestine: approximately one-fourth
  effect of mixed micelles on absorption: promotes the absorption

## [H]/N=C(/N)N[C@H]1[C@H](O)[C@@H](O)[C@H](O[C@@H]2O[C@@H](C)[C@](O)(C=O)[C@H]2O[C@@H]2O[C@@H](CO)[C@H](O)[C@@H](O)[C@@H]2NC)[C@@H](N/C(N)=N\[H])[C@@H]1O [streptomycin]
[6]; in vivo
  absorption from rectum and large intestine: comparable
  absorption via rectum and large intestine versus comparable dose administered duodenally: markedly greater
  absorption without micelle formulation: poorly absorbed

## CC(=O)[C@H]1CC[C@H]2[C@@H]3CCC4=CC(=O)CC[C@]4(C)[C@H]3CC[C@]12C [progesterone]
[2]; in combination with cholesterol or its esters
  biological activity: good sustained biological activity

## O=c1[nH]cc(F)c(=O)[nH]1 [5-fluorouracil]
[6]; large intestine
  absorption in mixed micelle versus alone: greater
[6]; stomach or small intestine
  absorption in mixed micelle versus alone: little difference

## COC1=C(OC)C(=O)C(C/C=C(\C)CC/C=C(\C)CC/C=C(\C)CC/C=C(\C)CC/C=C(\C)CC/C=C(\C)CC/C=C(\C)CC/C=C(\C)CC/C=C(\C)CCC=C(C)C)=C(C)C1=O [ubidecarenone]
[7]; drug alone
  absorption of ubidecarenone: 2.3%
[7]; in mixture of C12-18 fatty acids and monoglycerides
  absorption of ubidecarenone: 8.3%

## C[C@]12CC[C@@H]3c4ccc(O)cc4CC[C@H]3[C@@H]1CC[C@@H]2O [estradiol]
[8]; 2:1:2 composition, excess bile salts
  initial concentrations in plasma of estradiol relative to lymph: greater than those in lymph
[8]; 2:1:2 fatty acids:monoglycerides:bile salts
  estradiol co-absorbed with lipid and entering circulation via thoracic lymph: 25-50%
[9]; with phosphatidyl choline
  estradiol remaining in 2:1:2 micellar composition: 70-75%
[9]; without phosphatidyl choline
  estradiol remaining associated with 2:1:2 micellar composition: about 60%

## CCCCCCCCCCC(=O)O[C@H]1CC[C@H]2[C@@H]3CCC4=CC(=O)CC[C@]4(C)[C@H]3CC[C@]12C [testosterone undecanoate]
[2]; peanut oil solution versus aqueous micro-crystalline suspension
  biological activity: more biologically active

## lysophosphatidyl choline
[3]; in vivo
  absorption of lysophosphatidyl choline: rapidly absorbed intact

## gentamycin
[6]; bile salt: mixed lipid micelle
  absorption from rectum and large intestine: comparable
[6]; mixed lipid micelle, duodenal concentration even four times higher
  absorption via rectum and large intestine versus comparable dose administered duodenally: markedly greater
